From US10844032B2, “Substituted benzofuran, benzothiophene and indole Mcl-1 inhibitors” (Vanderbilt University, priority 2012, dated 2020)

target: recombinant Mcl-1 (residues 172-327) (Homo sapiens (Human), UniProt Q07820); assay: Bak peptide fluorescence polarization anisotropy competition assay, Mcl-1; type: binding; settings: Table 2, Ki range; FITC-Bak peptide 10 nM, Mcl-1 14 nM; read-out: Ki for inhibition of Mcl-1
Sequence (Q07820 172-327): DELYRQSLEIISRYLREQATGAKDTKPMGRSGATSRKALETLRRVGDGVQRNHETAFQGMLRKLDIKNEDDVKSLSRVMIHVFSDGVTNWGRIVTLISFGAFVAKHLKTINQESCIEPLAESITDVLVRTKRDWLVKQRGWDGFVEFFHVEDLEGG

Ki [nM]	Compound
≤ 100	Cc1cccc(S(=O)(=O)NC(=O)c2[nH]c3c(-c4c(CO)nn(C)c4C)cccc3c2CCCOc2cc(C)c(Cl)c(C)c2)c1 [Example 204, 3-(3-(4-chloro-3,5-dimethylphenoxy)propyl)-7-(3-(hydroxymethyl)-1,5-dimethyl-1H-pyrazol-4-yl)-N-(m-tolylsulfonyl)-1H-indole-2-carboxamide]
≤ 100	Cc1cc(OCCCc2c(C(=O)NS(=O)(=O)CCNC(=O)C3CCCCC3)[nH]c3c(-c4c(CO)nn(C)c4C)cccc23)cc(C)c1Cl [Example 205, 3-(3-(4-chloro-3,5-dimethylphenoxy)propyl)-N-((2-(cyclohexanecarboxamido)ethyl)sulfonyl)-7-(3-(hydroxymethyl)-1,5-dimethyl-1H-pyrazol-4-yl)-1H-indole-2-carboxamide]
≤ 100	Cc1cc(OCCCc2c(C(=O)NS(=O)(=O)c3ccccc3)[nH]c3cc(Cl)ccc23)cc(C)c1Cl [Example 216, 6-chloro-3-(3-(4-chloro-3,5-dimethylphenoxy)propyl)-N-(phenylsulfonyl)-1H-indole-2-carboxamide]
≤ 100	Cc1cc(OCCCc2c(C(=O)NS(=O)(=O)CCNC(=O)C3CCCCC3)[nH]c3cc(Cl)ccc23)cc(C)c1Cl [Example 226, 6-chloro-3-(3-(4-chloro-3,5-dimethylphenoxy)propyl)-N-((2-(cyclohexanecarboxamido)ethyl)sulfonyl)-1H-indole-2-carboxamide]
≤ 100	Cc1cc(OCCCc2c(C(=O)NS(=O)(=O)CCNC(=O)CCc3ccccc3)[nH]c3cc(Cl)ccc23)cc(C)c1Cl [Example 230, 6-chloro-3-(3-(4-chloro-3,5-dimethylphenoxy)propyl)-N-((2-(3-phenylpropanamido)ethyl)sulfonyl)-1H-indole-2-carboxamide]
≤ 100	Cc1cc(OCCCc2c(C(=O)NS(=O)(=O)CCNC(=O)c3ccco3)[nH]c3cc(Cl)ccc23)cc(C)c1Cl [Example 232, 6-chloro-3-(3-(4-chloro-3,5-dimethylphenoxy)propyl)-N-((2-(furan-2-carboxamido)ethyl)sulfonyl)-1H-indole-2-carboxamide]
≤ 100	Cc1cc(OCCCc2c(C(=O)NS(=O)(=O)CCNC(=O)c3cccn3C)[nH]c3cc(Cl)ccc23)cc(C)c1Cl [Example 233, 6-chloro-3-(3-(4-chloro-3,5-dimethylphenoxy)propyl)-N-((2-(1-methyl-1H-pyrrole-2-carboxamido)ethyl)sulfonyl)-1H-indole-2-carboxamide]

same assay, conditions: read-out: Ki for inhibition of Mcl-1

Ki [nM]	Compound
101 to 299	Cc1cc(OCCCc2c(C(=O)NS(=O)(=O)c3cccc(C(=O)NC4CCOCC4)c3)[nH]c3ccccc23)cc(C)c1Cl [Example 202, 3-(3-(4-chloro-3,5-dimethylphenoxy)propyl)-N-((3-((tetrahydro-2H-pyran-4-yl)carbamoyl)phenyl)sulfonyl)-1H-indole-2-carboxamide]
301 to 500	Cc1cc(OCCCc2c(C(=O)NS(=O)(=O)CCN(C/C=C/c3ccccc3)C/C=C/c3ccccc3)[nH]c3ccccc23)cc(C)c1Cl [Example 203, 3-(3-(4-chloro-3,5-dimethylphenoxy)propyl)-N-((2-(dicinnamylamino)ethyl)sulfonyl)-1H-indole-2-carboxamide]
301 to 500	Cc1cc(OCCCc2c(C(=O)NS(=O)(=O)CCNC(=O)C3CCCCC3)[nH]c3cccc(Cl)c23)cc(C)c1Cl [Example 208, 4-chloro-3-(3-(4-chloro-3,5-dimethylphenoxy)propyl)-N-((2-(cyclohexanecarboxamido)ethyl)sulfonyl)-1H-indole-2-carboxamide]
301 to 500	Cc1cc(OCCCc2c(C(=O)NS(=O)(=O)CC3CCN(C(=O)OCc4ccccc4)CC3)[nH]c3cc(Cl)ccc23)cc(C)c1Cl [Example 209, benzyl 4-((N-(6-chloro-3-(3-(4-chloro-3,5-dimethylphenoxy)propyl)-1H-indole-2-carbonyl)sulfamoyl)methyl)piperidine-1-carboxylate]
501 to 999	CC(=O)N1CCC(CS(=O)(=O)NC(=O)c2[nH]c3ccccc3c2CCCOc2cc(C)c(Cl)c(C)c2)CC1 [Example 210, N-(((1-acetylpiperidin-4-yl)methyl)sulfonyl)-3-(3-(4-chloro-3,5-dimethylphenoxy)propyl)-1H-indole-2-carboxamide]
301 to 500	Cc1cc(OCCCc2c(C(=O)NS(=O)(=O)CC3CCN(C(=O)c4cccn4C)CC3)[nH]c3ccccc23)cc(C)c1Cl [Example 211, 3-(3-(4-chloro-3,5-dimethylphenoxy)propyl)-N-(((1-(1-methyl-1H-pyrrole-2-carbonyl)piperidin-4-yl)methyl)sulfonyl)-1H-indole-2-carboxamide]
301 to 500	Cc1cc(OCCCc2c(C(=O)NS(=O)(=O)C3CCN(C(=O)C4CCCCC4)CC3)[nH]c3cc(Cl)ccc23)cc(C)c1Cl [Example 212, 6-chloro-3-(3-(4-chloro-3,5-dimethylphenoxy)propyl)-N-((1-(cyclohexanecarbonyl)piperidin-4-yl)sulfonyl)-1H-indole-2-carboxamide]
301 to 500	Cc1cc(OCCCc2c(C(=O)NS(=O)(=O)C3CCN(C(=O)c4cccc(Oc5ccccc5)c4)CC3)[nH]c3cc(Cl)ccc23)cc(C)c1Cl [Example 213, 6-chloro-3-(3-(4-chloro-3,5-dimethylphenoxy)propyl)-N-((1-(3-phenoxybenzoyl)piperidin-4-yl)sulfonyl)-1H-indole-2-carboxamide]
301 to 500	Cc1cc(OCCCc2c(C(=O)NS(=O)(=O)C3CCN(C(=O)c4cc(-c5ccccc5O)n[nH]4)CC3)[nH]c3cc(Cl)ccc23)cc(C)c1Cl [Example 214]
301 to 500	Cc1cc(OCCCc2c(C(=O)NS(=O)(=O)C3CCN(C(=O)c4cccn4Cc4ccccc4)CC3)[nH]c3cc(Cl)ccc23)cc(C)c1Cl [Example 215, N-((1-(1-benzyl-1H-pyrrole-2-carbonyl)piperidin-4-yl)sulfonyl)-6-chloro-3-(3-(4-chloro-3,5-dimethylphenoxy)propyl)-1H-indole-2-carboxamide]
101 to 299	Cc1cccc(S(=O)(=O)NC(=O)c2[nH]c3cc(Cl)ccc3c2CCCOc2cc(C)c(Cl)c(C)c2)c1 [Example 217, 6-chloro-3-(3-(4-chloro-3,5-dimethylphenoxy)propyl)-N-(m-tolylsulfonyl)-1H-indole-2-carboxamide]
101 to 299	Cc1cc(OCCCc2c(C(=O)NS(=O)(=O)c3cccc(Br)c3)[nH]c3cc(Cl)ccc23)cc(C)c1Cl [Example 218, N-((3-bromophenyl)sulfonyl)-6-chloro-3-(3-(4-chloro-3,5-dimethylphenoxy)propyl)-1H-indole-2-carboxamide]
301 to 500	Cc1cc(OCCCc2c(C(=O)NS(=O)(=O)c3ccc(-c4ccccc4)cc3)[nH]c3cc(Cl)ccc23)cc(C)c1Cl [Example 219, N-([1,1′-biphenyl]-4-ylsulfonyl)-6-chloro-3-(3-(4-chloro-3,5-dimethylphenoxy)propyl)-1H-indole-2-carboxamide]
101 to 299	COc1ccc(Oc2cccc(S(=O)(=O)NC(=O)c3[nH]c4cc(Cl)ccc4c3CCCOc3cc(C)c(Cl)c(C)c3)c2)cc1 [Example 220, 6-chloro-3-(3-(4-chloro-3,5-dimethylphenoxy)propyl)-N-((3-(4-methoxyphenoxy)phenyl)sulfonyl)-1H-indole-2-carboxamide]
301 to 500	Cc1cc(OCCCc2c(C(=O)NS(=O)(=O)c3ccc(Oc4ccc(Cl)c(Cl)c4)cc3)[nH]c3cc(Cl)ccc23)cc(C)c1Cl [Example 221, 6-chloro-3-(3-(4-chloro-3,5-dimethylphenoxy)propyl)-N-((4-(3,4-dichlorophenoxy)phenyl)sulfonyl)-1H-indole-2-carboxamide]
101 to 299	Cc1cc(OCCCc2c(C(=O)NS(=O)(=O)c3ccc(Oc4ccccc4)cc3)[nH]c3cc(Cl)ccc23)cc(C)c1Cl [Example 222, 6-chloro-3-(3-(4-chloro-3,5-dimethylphenoxy)propyl)-N-((4-phenoxyphenyl)sulfonyl)-1H-indole-2-carboxamide]
301 to 500	CCOc1ccc(Oc2ccc(S(=O)(=O)NC(=O)c3[nH]c4cc(Cl)ccc4c3CCCOc3cc(C)c(Cl)c(C)c3)cc2)cc1 [Example 223, 6-chloro-3-(3-(4-chloro-3,5-dimethylphenoxy)propyl)-N-((4-(4-ethoxyphenoxy)phenyl)sulfonyl)-1H-indole-2-carboxamide]
301 to 500	Cc1cc(OCCCc2c(C(=O)NS(=O)(=O)c3ccc(OCc4ccccc4)cc3)[nH]c3cc(Cl)ccc23)cc(C)c1Cl [Example 224, N-((4-(benzyloxy)phenyl)sulfonyl)-6-chloro-3-(3-(4-chloro-3,5-dimethylphenoxy)propyl)-1H-indole-2-carboxamide]
301 to 500	Cc1cc(OCCCc2c(C(=O)NS(=O)(=O)c3ccc(OCc4ccccc4)nc3)[nH]c3cc(Cl)ccc23)cc(C)c1Cl [Example 225, N-((6-(benzyloxy)pyridin-3-yl)sulfonyl)-6-chloro-3-(3-(4-chloro-3,5-dimethylphenoxy)propyl)-1H-indole-2-carboxamide]
101 to 299	Cc1cc(OCCCc2c(C(=O)NS(=O)(=O)CCNC(=O)c3ccoc3C)[nH]c3cc(Cl)ccc23)cc(C)c1Cl [Example 227, 6-chloro-3-(3-(4-chloro-3,5-dimethylphenoxy)propyl)-N-((2-(2-methylfuran-3-carboxamido)ethyl)sulfonyl)-1H-indole-2-carboxamide]
301 to 500	O=C(NS(=O)(=O)CCNC(=O)C1CCCCC1)c1[nH]c2cc(Cl)ccc2c1CCCOc1cccc2ccccc12 [Example 228, 6-chloro-N-((2-(cyclohexanecarboxamido)ethyl)sulfonyl)-3-(3-(naphthalen-1-yloxy)propyl)-1H-indole-2-carboxamide]
301 to 500	Cc1occc1C(=O)NCCS(=O)(=O)NC(=O)c1[nH]c2cc(Cl)ccc2c1CCCOc1cccc2ccccc12 [Example 229, 6-chloro-N-((2-(2-methylfuran-3-carboxamido)ethyl)sulfonyl)-3-(3-(naphthalen-1-yloxy)propyl)-1H-indole-2-carboxamide]
101 to 299	Cc1cc(OCCCc2c(C(=O)NS(=O)(=O)CCNC(=O)c3cccc(Oc4ccccc4)c3)[nH]c3cc(Cl)ccc23)cc(C)c1Cl [Example 231, 6-chloro-3-(3-(4-chloro-3,5-dimethylphenoxy)propyl)-N-((2-(3-phenoxybenzamido)ethyl)sulfonyl)-1H-indole-2-carboxamide]
